{"source": "paper PMC6563140", "about": "“Azaphilones from the Marine Sponge-Derived Fungus Penicillium sclerotiorum OUCMDZ-3839” (Marine Drugs, 2019)", "key": {"α-glycosidase [1]": {"molecular_target": "α-glycosidase", "assay": "PNPG enzyme inhibition assay, reference inhibitor", "assay_type": "biochemical"}, "α-glycosidase [2]": {"molecular_target": "α-glycosidase", "assay": "PNPG enzyme inhibition assay", "assay_type": "biochemical"}}}
{"molecule": "C[C@H]1O[C@H](O[C@H]2[C@H](O)[C@@H](O)[C@@H](O[C@H]3[C@H](O)[C@@H](O)C(O)O[C@@H]3CO)O[C@@H]2CO)[C@H](O)[C@@H](O)[C@@H]1N[C@H]1C=C(CO)[C@@H](O)[C@H](O)[C@H]1O", "note": "(stereo partly drawn) [acarbose]", "values": [{"measurement": "IC50", "setting": "α-glycosidase [1]", "result": 1100, "unit": "µM"}]}
{"molecule": "CC[C@H](C)/C=C(C)/C=C/C1=CC2=C(Cl)C(=O)[C@]3(C)OC(=O)[C@@H](C(C)=O)[C@@H]3C2=CO1", "note": "[compound 11, isochromophilone I]", "values": [{"measurement": "IC50", "setting": "α-glycosidase [2]", "result": 17.3, "unit": "µM"}]}
{"molecule": "CC[C@H](C)/C=C(C)/C=C/C1=CC2=C(Cl)C(=O)[C@](C)(OC(C)=O)C(=O)C2=CN1", "note": "[compound 14, scleratioramine]", "values": [{"measurement": "IC50", "setting": "α-glycosidase [2]", "result": 166, "unit": "µM"}]}
